This is an account of results in US9510598B2, “Nitrogen-containing heterocyclic compounds for plant disease control” (BAYER CROPSCIENCE AG, priority 2012, dated 2016).

One data set is classed as physicochemical. The note with it: HPLC on reversed phase columns, method [a]: pH 2.7, 0.1% formic acid in water and acetonitrile, linear gradient 10% to 95% acetonitrile.
Take `C#Cc1cnc2ccc(C3=NOC(C)(C(=O)N(Cc4cc(F)cc5c4C(C)(C)CCC5)C4CC4)C3)cc2c1` (racemic) [compound 816]: the “log P” value was 5.54[a]. On to `CC1(C(=O)NCc2cccnc2O)CC(c2ccc3ncc(Br)cc3c2)=NO1` (racemic) [compound 817], for which the “log P” value was 1.88[a]. Turning to `C#Cc1cnc2ccc(C3=NOC(OC)(C(=O)NCCC4CCCO4)C3)cc2c1` (racemic) [compound 818], the “log P” value was 2.11[a]. On the same count and under the same terms, under `CC(C)(C)Oc1ncccc1CNC(=O)C1(C)CC(c2ccc3ncc(Br)cc3c2)=NO1` (racemic) [compound 819] stands 4.46[a]; under `C#Cc1cnc2ccc(C3=NOC(OC)(C(=O)NCc4cn(CC)nc4C(F)(F)F)C3)cc2c1` (racemic) [compound 820], 2.80[a].

On to `CCn1cc(CNC(=O)C2(C)CC(c3ccc4ncc(Br)cc4c3)=NO2)c(C(F)(F)F)n1` (racemic) [compound 821], for which the “log P” value was 3.13[a].

For `COC1(C(=O)NCCC2CC2)CC(c2ccc3ncc(Br)cc3c2)=NO1` (racemic) [compound 822], the “log P” value was 3.03[a]. For `COC1(C(=O)NCCC2CCOC2)CC(c2ccc3ncc(Br)cc3c2)=NO1` (racemic) [compound 823], the “log P” value was 2.27[a].

Still in this data set, the particulars now being: method [a]: HPLC/LC-MS on reversed phase at pH 2.7, 0.1% formic acid in water / acetonitrile, gradient 10% to 95% acetonitrile.
With `CCn1cc(CNC(=O)C2(C)ON=C(c3ccc4ncc(Br)cc4c3)C2OC)c(C)n1` (mixture of isomers) [compound 433], the “log P” value is 2.44[a]. For `C#Cc1cnc2ccc(C3=NOC(C)(C(=O)NCCCN(C)C)C3)cc2c1` (racemic) [compound 363], the “log P” value is 1.11[a]. As for `C#Cc1cnc2ccc(C3=NOC(C)(C(=O)NC(C)CCCCCC)C3)cc2c1` (racemic) [compound 367], the “log P” value was 4.19[a]. Consider `C#Cc1cnc2ccc(C3=NOC(C)(C(=O)NC(C)CCC(C)C)C3)cc2c1` (racemic) [compound 369], for which the “log P” value was 3.73[a]. `CCCCCCC(C)NC(=O)C1(C)CC(c2ccc3ncc(Br)cc3c2)=NO1` (racemic) [compound 370]: the “log P” value is 4.73[a]. As to `CC1CCCC(C)C1NC(=O)C1(C)CC(c2ccc3ncc(Br)cc3c2)=NO1` (racemic) [compound 372], the “log P” value is 4.29[a]. For `CC(C)(C)ONC(=O)C1(C)CC(c2ccc3ncc(Br)cc3c2)=NO1` (racemic) [compound 373], the “log P” value was 2.66[a]. Regarding `CC(ONC(=O)C1(C)CC(c2ccc3ncc(Br)cc3c2)=NO1)C1CC1` (racemic) [compound 375], the “log P” value is 2.73[a]. With `CCn1cc(CNC(=O)C2(C)CC(c3ccc4ncc(-c5ccco5)cc4c3)=NO2)c(C)n1` (racemic) [compound 379], the “log P” value is 2.37[a]. With `CCn1cc(CNC(=O)C2(C)ON=C(c3ccc4ncc(Br)cc4c3)C2C)c(C)n1` (racemic) [compound 385], the “log P” value is 2.55[a]. With `CCn1cc(CNC(=O)C2(CC(=O)OC)CC(c3ccc4ncc(Br)cc4c3)=NO2)c(C)n1` (racemic) [compound 386], the “log P” value is 2.31[a]. Turning to `COC(=O)CC1(C(=O)NC(C)C)CC(c2ccc3ncc(Br)cc3c2)=NO1` (racemic) [compound 387], the “log P” value was 2.66[a]. As for `CCOC1C(c2ccc3ncc(Br)cc3c2)=NOC1(C)C(=O)NC(C)C` (racemic) [compound 393], the “log P” value was 3.35[a]. On to `O=C(NC1CC1)C12CC1C(c1ccc3ncc(Br)cc3c1)=NO2` (racemic) [compound 398], for which the “log P” value is 2.50[a].

On to `CCn1cc(CNC(=O)C23CC2C(c2ccc4ncc(Br)cc4c2)=NO3)c(C)n1` (racemic) [compound 399], for which the “log P” value was 2.44[a]. For `CC1(C)OCC(CNC(=O)C23CC2C(c2ccc4ncc(Br)cc4c2)=NO3)O1` (racemic) [compound 400], the “log P” value is 2.75[a]. On to `CCOCCCNC(=O)C12CC1C(c1ccc3ncc(Br)cc3c1)=NO2` (racemic) [compound 401], for which the “log P” value was 2.84[a]. On to `CC(C)NC(=O)C12ON=C(c3ccc4ncc(Br)cc4c3)C1C2C` (racemic) [compound 403], for which the “log P” value is 3.11[a]. For the compound `CCn1cc(CNC(=O)C2(CC3CC3)CC(c3ccc4ncc(Br)cc4c3)=NO2)c(C)n1` (racemic) [compound 425], the “log P” value was 3.01[a]. In the case of `CC(C)NC(=O)C1(C)CC(c2ccc3ncc(NC(=O)OC(C)(C)C)cc3c2)=NO1` (racemic) [compound 430], the “log P” value was 2.77[a]. Consider `CCn1cc(CNC(=O)C2(C)CC(c3ccc4nc(C#N)c(I)cc4c3)=NO2)c(C)n1` (racemic) [compound 431], for which the “log P” value is 2.57[a]. The same measure, in the same setting: under `CCn1cc(CNC(=O)C2(C)CC(c3ccc4nc(Cl)c(I)cc4c3)=NO2)c(C)n1` (racemic) [compound 432] stands 2.94[a]; under `CCn1cc(CNC(=O)C2(C)CC(c3ccc4ncc(N)cc4c3)=NO2)c(C)n1` (racemic) [compound 452], 1.12[a].

Still in this data set, the particulars now being: method [a]: HPLC/LC-MS on reversed phase at pH 2.7, 0.1% formic acid in water / acetonitrile, linear gradient 10% to 95% acetonitrile.
`CCC(C)NC(=O)C1(C)CC(c2cc3cc(Br)cnc3c(F)c2OC)=NO1` (stereo not shown) [compound 27]: the “log P” value was 3.29^[a]. With `CC(C)NC(=O)C1(Cc2ccccc2)CC(c2ccc3ncc(Br)cc3c2)=NO1` (stereo not shown) [compound 57], the “log P” value is 3.87^[a].

Turning to `O=C(NC1CC1)C1(Cc2ccccc2)CC(c2ccc3ncc(Br)cc3c2)=NO1` (stereo not shown) [compound 60], the “log P” value is 3.46^[a]. Regarding `CC(C)NC(=O)C1(C(C)C)CC(c2ccc3ncc(Br)cc3c2)=NO1` (stereo not shown) [compound 62], the “log P” value is 3.51^[a]. With `CC(C)C1(C(=O)NC2CC2)CC(c2ccc3ncc(Br)cc3c2)=NO1` (stereo not shown) [compound 65], the “log P” value was 3.11^[a]. With `CCCCC1(C(=O)NCc2cn(CC)nc2C)CC(c2ccc3ncc(Br)cc3c2)=NO1` (stereo not shown) [compound 72], the “log P” value is 3.37^[a]. On to `CCCCC1(C(=O)NC(C)C)CC(c2ccc3ncc(Br)cc3c2)=NO1` (stereo not shown) [compound 73], for which the “log P” value is 4.01^[a]. With `CC(C)NC(=O)C1(C)CC(c2ccc3ncc([S+](C)[O-])cc3c2)=NO1` (stereo not shown) [compound 77], the “log P” value was 1.49^[a]. Same read-out and setting: the value for `CC(C)NC(=O)C1(C)CC(c2ccc3ncc(C#N)cc3c2)=NO1` (stereo not shown) [compound 79] was 2.12^[a]; that for `CC(C)NC(=O)C1(CBr)CC(c2ccc3ncc(Br)cc3c2)=NO1` (stereo not shown) [compound 81] was 3.04^[a]; that for `CC1(C(=O)NCc2cccs2)CC(c2ccc3ncc(Br)cc3c2)=NO1` (stereo not shown) [compound 89] was 3.06^[a]. `Cc1ccc(CNC(=O)C2(C)CC(c3ccc4ncc(Br)cc4c3)=NO2)o1` (stereo not shown) [compound 90]: the “log P” value is 3.15^[a].

Still in this data set, the particulars now being: method [a]: HPLC/LC-MS on reversed phase at pH 2.7, 0.1% formic acid in water and acetonitrile, linear gradient 10% to 95% acetonitrile.
Turning to `CNC(=O)C1(C)CC(c2ccc3ncccc3c2)=NO1` (stereo not shown) [compound 2], the “Log P” value is 1.3^[a]. Same read-out and setting: the value for `CC1(C(=O)NC2CC2)CC(c2ccc3ncccc3c2)=NO1` (stereo not shown) [compound 3] was 1.04^[a]; that for `CON(OC)C(=O)C1(C)CC(c2cc3cc(Br)cnc3c(F)c2F)=NO1` (stereo not shown) [compound 9] was 2.92^[a]; that for `CCn1cc(CNC(=O)C2(C)CC(c3cc4cc(Br)cnc4c(F)c3F)=NO2)cn1` (stereo not shown) [compound 13] was 2.5^[a].

For `CCC(C)NC(=O)C1(C(F)(F)F)CC(c2cc3cc(Br)cnc3c(F)c2F)=NO1` (stereo not shown) [compound 15], the “Log P” value is 4.04^[a]. Consider `CCOCCCNC(=O)C1(C(F)(F)F)CC(c2cc3cc(Br)cnc3c(F)c2F)=NO1` (stereo not shown) [compound 16], for which the “Log P” value is 3.71^[a]. As for `COc1ccc(CNC(=O)C2(C)CC(c3cc4cc(Br)cnc4c(F)c3F)=NO2)cc1OC` (stereo not shown) [compound 19], the “Log P” value is 3.02^[a].

Still in this data set, the particulars now being: pH 2.7.
On to `COC(=O)C1(C)CC(c2ccc3ncc(I)cc3c2)=NO1` (stereo not shown) [Compound No. 11-30], for which the chromatographic logP was 2.71. Take `CC(C)NC(=O)C1(C)CC(c2ccc3ncc(-c4cccs4)cc3c2)=NO1` (stereo not shown) [Compound No. 144]: the chromatographic logP was 3.04.

`CC(C)NC(=O)C1(C)CC(c2ccc3ncc(-c4cncnc4)cc3c2)=NO1` (stereo not shown) [Compound No. 258] registered a chromatographic logP of 1.79. The compound `CCOCCCNC(=O)C1(C(F)F)CC(c2ccc3ncc(Br)cc3c2)=NO1` (stereo not shown) [Compound No. 623, 3-(3-bromoquinolin-6-yl)-5-(difluoromethyl)-N-(3-ethoxypropyl)-4,5-dihydro-1,2-oxazole-5-carboxamide] yielded a chromatographic logP of 3.06.

Staying with this data set, now noted: reversed phase HPLC column; HPLC reversed phase, pH 2.7, 0.1% formic acid in water / acetonitrile, linear gradient 10% to 95% acetonitrile; calibration with alkan-2-ones; read-out: log P (HCOOH).
Regarding `O/N=C/c1ccc2ncc(Cl)cc2c1` [1-(3-chloroquinolin-6-yl)-N-hydroxymethanimine], the chromatographic logP is 1.78. Take `O/N=C/c1ccc2ncc(I)cc2c1` [1-(3-iodoquinolin-6-yl)-N-hydroxymethanimine]: the chromatographic logP worked out at 1.98. Regarding `O/N=C(\Cl)c1ccc2ncc(I)cc2c1` [3-Iodo-N-hydroxyquinoline-6-carboximidoyl chloride], the chromatographic logP came to 2.63. On the same count and under the same terms, under `O=Cc1cc2cc(Br)cnc2c(F)c1F` [3-bromo-7,8-difluoroquinoline-6-carbaldehyde] stands 2.71; under `O=Cc1ccc2ncc(Br)cc2c1` [3-bromoquinoline-6-carbaldehyde], 2.08.

Consider `O/N=C(\Cl)c1ccc2ncc(Cl)cc2c1` [3-chloro-N-hydroxyquinoline-6-carboximidoyl chloride], for which the chromatographic logP is 1.96. Same read-out and setting: the value for `O=Cc1ccc2ncc(Cl)cc2c1` [3-chloroquinoline-6-carbaldehyde] was 1.96. On to `O=Cc1ccc2ncc(I)cc2c1` [3-iodoquinoline-6-carbaldehyde], for which the chromatographic logP worked out at 2.12. For the compound `CC(C)NC(=O)C1(C)CC(c2ccc3ncc(-c4ccccc4)cc3c2)=NO1` (stereo not shown) [Compound No. 141], the chromatographic logP is 3.02. For `CCn1cc(CNC(=O)C23OCCCC2C(c2ccc4ncc(Br)cc4c2)=NO3)c(C)n1` (stereo not shown) [Compound No. 266], the chromatographic logP is 2.59.
